What follows are molecules tested against T1, human κ opioid receptors (Homo sapiens, UniProt P41145) (assay: Opioid receptor function test (Lance Ultra cAMP kit, agonist activity)). Conditions: CHO cells expressing human κ opioid receptors, 10 μM forskolin, 30 minutes.
T1 construct: host or cells: CHO cells
T1 sequence (P41145 whole entry): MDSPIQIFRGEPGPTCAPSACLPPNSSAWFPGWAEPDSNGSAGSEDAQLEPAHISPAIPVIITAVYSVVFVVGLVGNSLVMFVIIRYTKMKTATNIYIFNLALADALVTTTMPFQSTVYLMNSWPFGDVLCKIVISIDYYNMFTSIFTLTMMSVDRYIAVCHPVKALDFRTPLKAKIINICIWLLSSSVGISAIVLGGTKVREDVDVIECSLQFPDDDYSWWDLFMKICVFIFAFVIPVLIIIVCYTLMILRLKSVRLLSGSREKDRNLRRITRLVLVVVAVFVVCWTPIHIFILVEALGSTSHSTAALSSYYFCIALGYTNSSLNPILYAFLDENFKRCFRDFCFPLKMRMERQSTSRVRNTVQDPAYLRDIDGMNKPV
Format: cell-based
Protocol: Opioid Receptor Function Test
The function activity of the compound of the present invention on κ opioid receptors was examined.
Method: Using a Lance Ultra cAMP kit (Perkin Elmer), the examination was performed according to a predetermined method. In evaluation of agonist activity, CHO cells expressing human κ opioid receptors (Catalog No. CT6606, accession No. NM_000912) and a test compound were reacted in an assay buffer (1×HSS, 5 mM HEPES, pH 7.4, 0.5 mM IBMX (isobutylmethyixanthine), 0.1% SA) in the presence of 10 μM forskolin for 30 minutes. Subsequently, a cAMP detection reagent in the kit was added. One hour later, time-resolved fluorescence measurement was performed using an EnVision plate reader (Perkin Elmer). The evaluation of the test compound was performed in a concentration range of 10^−14 to 10^−7 M for the κ opioid receptor function test.
Molecule Cc1cnn(C2CC(N3CC[C@]45CCN(CC6CC6)[C@H](Cc6ccc(O)cc64)[C@]5(O)CC3)C2)c1 (single isomer, unassigned) [Example 227 (I)] has an EC50 of 0.015 nM. Cc1cnn(C2CC(N3CC[C@]45CCN(CC6CC6)[C@H](Cc6ccc(O)cc64)[C@]5(O)CC3)C2)c1 (single isomer, unassigned) [Example 227 (II)] showed an EC50 of 0.16 nM. Work on Oc1ccc2c(c1)[C@@]13CCN(CCc4cc[nH]n4)CC[C@@]1(O)[C@@H](C2)N(CC1CC1)CC3 [Example 27, (5aS,6R,11bS)-3-(2-(1H-pyrazol-3-yl)ethyl)-14-(cyclopropylmethyl)-2,3,4,5,6,7-hexahydro-6,11b-(epiminoethano)naphtho[1,2-d]azepine-5a,10(1H)-diol] yielded an EC50 of 0.13 nM. Work on Oc1ccc2c(c1)[C@@]13CCN(CCc4ccco4)CC[C@@]1(O)[C@@H](C2)N(CC1CC1)CC3 [Example 32, (5aS,6R,11bS)-14-(cyclopropylmethyl)-3-(2-(furan-2-yl)ethyl)-2,3,4,5,6,7-hexahydro-6,11b-(epiminoethano)naphtho[1,2-d]azepine-5a,10(1H)-diol] yielded an EC50 of 0.13 nM. O=C(Cc1cscn1)N1CC[C@]23CCN(CC4CC4)[C@H](Cc4ccc(O)cc42)[C@]3(O)CC1 [Example 33, 1-((5aS,6R,11bR)-14-(cyclopropylmethyl)-5a,10-dihydroxy-1,2,5,5a,6,7-hexahydro-6,11b-(epiminoethano)naphtho[1,2-d]azepin-3(4H)-yl)-2-(thiazol-4-yl)ethan-1-one] gave an EC50 of 0.92 nM. Cn1nc(CC(=O)N2CC[C@]34CCN(CC5CC5)[C@H](Cc5ccc(O)cc53)[C@]4(O)CC2)cc1C(F)(F)F [Example 36, 1-((5aS,6R,11bR)-14-(cyclopropylmethyl)-5a,10-dihydroxy-1,2,5,5a,6,7-hexahydro-6,11b-(epiminoethano)naphtho[1,2-d]azepin-3(4H)-yl)-2-(1-methyl-5-(trifluoromethyl)-1H-pyrazol-3-yl)ethan-1-one] gave an EC50 of 0.025 nM. For Cn1nc(CCN2CC[C@]34CCN(CC5CC5)[C@H](Cc5ccc(O)cc53)[C@]4(O)CC2)cc1C(F)(F)F [Example 37, (5aS,6R,11bS)-14-(cyclopropylmethyl)-3-(2-(1-methyl-5-(trifluoromethyl)-1H-pyrazol-3-yl)ethyl)-2,3,4,5,6,7-hexahydro-6,11b-(epiminoethano)naphtho[1,2-d]azepine-5a,10(1H)-diol], the EC50 was 0.051 nM. Cn1cnc(CCN2CC[C@]34CCN(CC5CC5)[C@H](Cc5ccc(O)cc53)[C@]4(O)CC2)c1 [Example 41, (5aS,6R,11bS)-14-(cyclopropylmethyl)-3-(2-(1-methyl-1H-imidazol-4-yl)ethyl)-2,3,4,5,6,7-hexahydro-6,11b-(epiminoethano)naphtho[1,2-d]azepine-5a,10(1H)-diol] gave an EC50 of 0.13 nM. Cc1ccn(CCN2CC[C@]34CCN(CC5CC5)[C@H](Cc5ccc(O)cc53)[C@]4(O)CC2)n1 [Example 47, (5aS,6R,11bS)-14-(cyclopropylmethyl)-3-(2-(3-methyl-1H-pyrazol-1-yl)ethyl)-2,3,4,5,6,7-hexahydro-6,11b-(epiminoethano)naphtho[1,2-d]azepine-5a,10(1H)-diol] showed an EC50 of 0.23 nM. In the case of Cc1cnn(CC(=O)N2CC[C@]34CCN(CC5CC5)[C@H](Cc5ccc(O)cc53)[C@]4(O)CC2)c1 [Example 49, 1-((5aS,6R,11bR)-14-(cyclopropylmethyl)-5a,10-dihydroxy-1,2,5,5a,6,7-hexahydro-6,11b-(epiminoethano)naphtho[1,2-d]azepin-3(4H)-yl)-2-(4-methyl-1H-pyrazol-1-yl)ethan-1-one], the EC50 is reported as 0.089 nM. Cc1ccnn1CCN1CC[C@]23CCN(CC4CC4)[C@H](Cc4ccc(O)cc42)[C@]3(O)CC1 [Example 52, (5aS,6R,11bS)-14-(cyclopropylmethyl)-3-(2-(5-methyl-1H-pyrazol-1-yl)ethyl)-2,3,4,5,6,7-hexahydro-6,11b-(epiminoethano)naphtho[1,2-d]azepine-5a,10(1H)-diol] showed an EC50 of 0.15 nM. Molecule Oc1ccc2c(c1)[C@@]13CCN(CCn4ccc(C(F)(F)F)n4)CC[C@@]1(O)[C@@H](C2)N(CC1CC1)CC3 [Example 54, (5aS,6R,11bS)-14-(cyclopropylmethyl)-3-(2-(3-(trifluoromethyl)-1H-pyrazol-1-yl)ethyl)-2,3,4,5,6,7-hexahydro-6,11b-(epiminoethano)naphtho[1,2-d]azepine-5a,10(1H)-diol] has an EC50 of 0.36 nM. With Cc1cc(C)n(CCN2CC[C@]34CCN(CC5CC5)[C@H](Cc5ccc(O)cc53)[C@]4(O)CC2)n1 [Example 56, (5aS,6R,11bS)-14-(cyclopropylmethyl)-3-(2-(3,5-dimethyl-1H-pyrazol-1-yl)ethyl)-2,3,4,5,6,7-hexahydro-6,11b-(epiminoethano)naphtho[1,2-d]azepine-5a,10(1H)-diol] the EC50 was 0.97 nM. For Oc1ccc2c(c1)[C@@]13CCN(CCn4nc(C(F)F)cc4C(F)F)CC[C@@]1(O)[C@@H](C2)N(CC1CC1)CC3 [Example 58, (5aS,6R,11bS)-3-(2-(3,5-bis(difluoromethyl)-1H-pyrazol-1-yl)ethyl)-14-(cyclopropylmethyl)-2,3,4,5,6,7-hexahydro-6,11b-(epiminoethano)naphtho[1,2-d]azepine-5a,10(1H)-diol], the EC50 was 0.14 nM. Work on O=C(Cn1cc(Br)cn1)N1CC[C@]23CCN(CC4CC4)[C@H](Cc4ccc(O)cc42)[C@]3(O)CC1 [Example 60, 2-(4-bromo-1H-pyrazol-1-yl)-1-((5aS,6R,11bR)-14-(cyclopropylmethyl)-5a,10-dihydroxy-1,2,5,5a,6,7-hexahydro-6,11b-(epiminoethano)naphtho[1,2-d]azepin-3(4H)-yl)ethan-1-one] yielded an EC50 of 0.056 nM. Molecule Oc1ccc2c(c1)[C@@]13CCN(CCn4nccn4)CC[C@@]1(O)[C@@H](C2)N(CC1CC1)CC3 [Example 66, (5aS,6R,11bS)-3-(2-(2H-1,2,3-triazol-2-yl)ethyl)-14-(cyclopropylmethyl)-2,3,4,5,6,7-hexahydro-6,11b-(epiminoethano)naphtho[1,2-d]azepine-5a,10(1H)-diol] has an EC50 of 0.14 nM. Oc1ccc2c(c1)[C@@]13CCN(CCCc4ccccn4)CC[C@@]1(O)[C@@H](C2)N(CC1CC1)CC3 [Example 69, (5aS,6R,11bS)-14-(cyclopropylmethyl)-3-(3-(pyridin-2-yl)propyl)-2,3,4,5,6,7-hexahydro-6,11b-(epiminoethano)naphtho[1,2-d]azepine-5a,10(1H)-diol] gave an EC50 of 0.28 nM. Oc1ccc2c(c1)[C@@]13CCN(CCc4ncccn4)CC[C@@]1(O)[C@@H](C2)N(CC1CC1)CC3 [Example 83, (5aS,6R,11bS)-14-(cyclopropylmethyl)-3-(2-(pyrimidin-2-yl)ethyl)-2,3,4,5,6,7-hexahydro-6,11b-(epiminoethano)naphtho[1,2-d]azepine-5a,10(1H)-diol] gave an EC50 of 0.37 nM. Oc1ccc2c(c1)[C@@]13CCN(CCc4cnccn4)CC[C@@]1(O)[C@@H](C2)N(CC1CC1)CC3 [Example 84, (5aS,6R,11bS)-14-(cyclopropylmethyl)-3-(2-(pyrazin-2-yl)ethyl)-2,3,4,5,6,7-hexahydro-6,11b-(epiminoethano)naphtho[1,2-d]azepine-5a,10(1H)-diol] showed an EC50 of 0.47 nM. Oc1ccc2c(c1)[C@@]13CCN(CCc4cccc(C(F)(F)F)n4)CC[C@@]1(O)[C@@H](C2)N(CC1CC1)CC3 [Example 88, (5aS,6R,11bS)-14-(cyclopropylmethyl)-3-(2-(6-(trifluoromethyl)pyridin-2-yl)ethyl)-2,3,4,5,6,7-hexahydro-6,11b-(epiminoethano)naphtho[1,2-d]azepine-5a,10(1H)-diol] gave an EC50 of 0.75 nM.

— patent US20230087342A1, “AZEPANE DERIVATIVE” (Nippon Chemiphar Co., Ltd., priority 2019, published 2023)
